Results reported in publication PMC12238850, “Molecular determinants for recognition of serotonylated chromatin” (Nucleic Acids Research, 2025).
Where a chain is given by its changes, count along the chain named. Like-named read-outs stand apart in the source and are kept apart here.

Tests used:
Type in all cases: binding
[1] = molecular target: T1, TAF3 S880A (GST-tagged PHD) (Mus musculus, UniProt Q5HZG4, S880A); assay: ITC of GST-tagged Taf3-PHD S880A
T1 construct: Mus musculus Taf3-PHD domain (residues 857–924); made in house; host or cells: E. coli BL21(DE3)
T1 sequence (Q5HZG4 857-924 S880A): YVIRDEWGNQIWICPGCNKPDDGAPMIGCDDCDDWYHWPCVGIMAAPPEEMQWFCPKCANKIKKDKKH
Description: (§1) The coding sequences of Mus musculus Taf3-PHD domain (residues 857–924) and Homosapiens PHF2 (1–66), PHF8 (37–102), and BPTF(2) (2865–2921) were cloned into the pGEX2T-derived vector, pRP265NB, for bacterial expression of GST-tagged proteins. Note that the PHD fingers of M. musculus Taf3 and H. sapiens TAF3 differ in a single amino acid. A901 in mouse corresponds to T899 in human. Here, amino acid numbering corresponds to mouse Taf3 isoform 1 with UniProt ID: Q5HZG4, accessible at https://www.uniprot.org/uniprotkb/Q5HZG4/entry. Single or double mutations were introduced by mutagenesis polymerase chain reaction and validated by Sanger sequencing. A single colony of freshly transformed BL21(DE3) Escherichia coli bacteria with the corresponding construct was grown in Luria broth (LB) medium supplemented with 50 μg/ml ampicillin until an OD600 of 0.7. […]
(§2) ITC experiments were performed at 20°C with a MicroCal VP-ITC microcalorimeter (Malvern) by sequential injection of 10 μl at 300 μM histone peptide during 20 s into the sample cell containing 30 or 15 μM of GST-Taf3 (wild type or mutant) or GST-BPTF, GST-PHF2, and GST-PHF8 PHDs in ITC buffer (100 mM NaCl, 20 mM Tris–HCl, pH 7.5). […] ITC data were subsequently analysed and fitted with the one-site binding model in the MicroCal ITC Origin Analysis software 7.0 (Table 1, Figs 3B and 5A, Supplementary Table S3, and Supplementary Fig. S10). […]

[2] = molecular target: T2, TAF3 W894F (GST-tagged PHD) (Mus musculus, UniProt Q5HZG4, W894F); assay: ITC of GST-tagged Taf3-PHD W894F
T2 construct: Mus musculus Taf3-PHD domain (residues 857–924); made in house; host or cells: E. coli BL21(DE3)
T2 sequence (Q5HZG4 857-924 W894F): T1 sequence (Q5HZG4 857-924 S880A) with A24S, W38F
Description: as §1, §2

[3] = molecular target: T3, TAF3 W894I (GST-tagged PHD) (Mus musculus, UniProt Q5HZG4, W894I); assay: ITC of GST-tagged Taf3-PHD W894I
T3 construct: Mus musculus Taf3-PHD domain (residues 857–924); made in house; host or cells: E. coli BL21(DE3)
T3 sequence (Q5HZG4 857-924 W894I): T1 sequence (Q5HZG4 857-924 S880A) with A24S, W38I
Description: as §1, §2

[4] = molecular target: T4, PHF8 PHD (37–102, GST-tagged) (Homo sapiens, UniProt Q9UPP1); assay: ITC of GST-tagged PHF8 PHD
T4 construct: PHF8 (37–102); made in house; host or cells: E. coli BL21(DE3)
T4 sequence (Q9UPP1 37-102): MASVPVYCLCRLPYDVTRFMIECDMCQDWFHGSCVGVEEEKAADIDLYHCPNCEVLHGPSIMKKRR
Description: as §1, §2

[5] = ITC, 20°C, 100 mM NaCl, 20 mM Tris–HCl, pH 7.5, one-site model, ± = standard error of fit, read-out: K D

Kd [1, 5]	Kd [2, 5]	Kd [3, 5]	Kd [4, 5]	SMILES	Kd [1]	Kd [2]	Kd [3]	Kd [4]
–	–	–	–	C[C@H](N)C(=O)N[C@@H](CCCNC(=N)N)C(=O)N[C@H](C(=O)N[C@@H](CCCC[N+](C)(C)C)C(=O)N[C@@H](CCC(=O)NCCc1c[nH]c2ccc(O)cc12)C(=O)N[C@H](C(=O)N[C@@H](C)C(=O)N[C@@H](CCCNC(=N)N)C(=O)N[C@@H](CCCCN)C(=O)N[C@@H](CO)C(=O)N[C@H](C(=O)NCC(N)=O)[C@@H](C)O)[C@@H](C)O)[C@@H](C)O [H3K4me3Q5ser]	65 ± 5 nM	102 ± 1 nM	106 ± 8 nM	275 ± 19 nM
207 ± 34 nM	126 ± 12 nM	279 ± 17 nM	418 ± 20 nM	C[C@H](N)C(=O)N[C@@H](CCCNC(=N)N)C(=O)N[C@H](C(=O)N[C@@H](CCCC[N+](C)(C)C)C(=O)N[C@@H](CCC(N)=O)C(=O)N[C@H](C(=O)N[C@@H](C)C(=O)N[C@@H](CCCNC(=N)N)C(=O)N[C@@H](CCCCN)C(=O)N[C@@H](CO)C(=O)N[C@H](C(=O)NCC(N)=O)[C@@H](C)O)[C@@H](C)O)[C@@H](C)O [H3K4me3]	–	–	–	–
